Measured values from ChEMBL document CHEMBL4229379, “Synthesis and structure-activity relationship of novel bisindole amidines active against MDR Gram-positive and Gram-negative bacteria” (Eur J Med Chem, 2018).
≈ marks a conversion by molar mass, not a printed value.

Experiments:
Staphylococcus aureus [1] = experiment: Antibacterial activity against methicillin-resistant Staphylococcus aureus 12-33 after 18 hrs by CLSI broth microdilution method; format: functional; settings: 12-33, 18 h
[2] = tested on: Stenotrophomonas maltophilia; experiment: Antibacterial activity against Stenotrophomonas maltophilia ATCC 13636 after 18 hrs by CLSI broth microdilution method; format: functional; settings: ATCC 13636, 18 h
Klebsiella pneumoniae [3] = experiment: Antibacterial activity against extended-spectrum beta-lactamase deficient Klebsiella pneumoniae 7 after 18 hrs by CLSI broth microdilution method; format: functional; settings: Klebsiella pneumoniae, 7, 18 h
Escherichia coli [4] = experiment: Antibacterial activity against extended-spectrum beta-lactamase deficient Escherichia coli ATCC 25922 after 18 hrs by CLSI broth microdilution method; format: functional; settings: ATCC 25922, 18 h
Staphylococcus aureus [5] = experiment: Antibacterial activity against methicillin-sensitive Staphylococcus aureus 15 after 18 hrs by CLSI broth microdilution method; format: functional; settings: Staphylococcus aureus, 15, 18 h
Escherichia coli [6] = experiment: Antibacterial activity against extended-spectrum beta-lactamase harboring Escherichia coli 12-15 after 18 hrs by CLSI broth microdilution method; format: functional; settings: 12-15, 18 h
Staphylococcus aureus [7] = experiment: Antibacterial activity against methicillin-sensitive Staphylococcus aureus ATCC 29213 after 18 hrs by CLSI broth microdilution method; format: functional; settings: ATCC 29213, 18 h
Escherichia coli [8] = experiment: Antibacterial activity against extended-spectrum beta-lactamase deficient Escherichia coli 1515 after 18 hrs by CLSI broth microdilution method; format: functional; settings: Escherichia coli, 1515, 18 h
Proteus vulgaris = experiment: Antibacterial activity against Proteus vulgaris ATCC 29905 after 18 hrs by CLSI broth microdilution method; format: functional; settings: ATCC 29905, 18 h
Klebsiella pneumoniae [9] = experiment: Antibacterial activity against extended-spectrum beta-lactamase deficient Klebsiella pneumoniae 12-4 after 18 hrs by CLSI broth microdilution method; format: functional; settings: 12-4, 18 h
Pseudomonas aeruginosa [10] = experiment: Antibacterial activity against Pseudomonas aeruginosa PAO1 after 18 hrs by CLSI broth microdilution method; format: functional; settings: PAO1, 18 h
Enterobacter cloacae = experiment: Antibacterial activity against Enterobacter cloacae ATCC 43560 after 18 hrs by CLSI broth microdilution method; format: functional; settings: ATCC 43560, 18 h
Escherichia coli [11] = experiment: Antibacterial activity against extended-spectrum beta-lactamase deficient Escherichia coli 12-14 after 18 hrs by CLSI broth microdilution method; format: functional; settings: 12-14, 18 h
Pseudomonas aeruginosa [12] = experiment: Antibacterial activity against Pseudomonas aeruginosa ATCC 27853 after 18 hrs by CLSI broth microdilution method; format: functional; settings: ATCC 27853, 18 h
[13] = tested on: Staphylococcus epidermidis; experiment: Antibacterial activity against methicillin-resistant Staphylococcus epidermidis 12-8 after 18 hrs by CLSI broth microdilution method; format: functional; settings: 12-8, 18 h
Enterococcus faecalis [14] = experiment: Antibacterial activity against vancomycin-sensitive Enterococcus faecalis ATCC 29212 after 18 hrs by CLSI broth microdilution method; format: functional; settings: ATCC 29212, 18 h
[15] = tested on: Acinetobacter calcoaceticus; experiment: Antibacterial activity against Acinetobacter calcoaceticus ATCC 19606 after 18 hrs by CLSI broth microdilution method; format: functional; settings: ATCC 19606, 18 h
[16] = tested on: Staphylococcus epidermidis; experiment: Antibacterial activity against methicillin-sensitive Staphylococcus epidermidis 12-6 after 18 hrs by CLSI broth microdilution method; format: functional; settings: 12-6, 18 h
Enterococcus faecium [17] = experiment: Antibacterial activity against vancomycin-sensitive Enterococcus faecium 12-3 after 18 hrs by CLSI broth microdilution method; format: functional; settings: 12-3, 18 h
Klebsiella pneumoniae [18] = experiment: Antibacterial activity against extended-spectrum beta-lactamase harboring Klebsiella pneumoniae ATCC 700603 after 18 hrs by CLSI broth microdilution method; format: functional; settings: Klebsiella pneumoniae, 700603, 18 h
Klebsiella pneumoniae [19] = experiment: Antibacterial activity against extended-spectrum beta-lactamase harboring Klebsiella pneumoniae 12-8 after 18 hrs by CLSI broth microdilution method; format: functional; settings: 12-8, 18 h
Staphylococcus aureus [20] = experiment: Antibacterial activity against methicillin-sensitive Staphylococcus aureus 12-28 after 18 hrs by CLSI broth microdilution method; format: functional; settings: 12-28, 18 h
Enterococcus faecalis [21] = experiment: Antibacterial activity against vancomycin-sensitive Enterococcus faecalis 12-5 after 18 hrs by CLSI broth microdilution method; format: functional; settings: 12-5, 18 h
Enterococcus faecium [22] = experiment: Antibacterial activity against vancomycin-resistant Enterococcus faecium 12-1 after 18 hrs by CLSI broth microdilution method; format: functional; settings: 12-1, 18 h
Staphylococcus aureus [23] = experiment: Antibacterial activity against methicillin-resistant Staphylococcus aureus ATCC 33591 after 18 hrs by CLSI broth microdilution method; format: functional; settings: ATCC 33591, 18 h
Klebsiella aerogenes = experiment: Antibacterial activity against Enterobacter aerogenes ATCC 13048 after 18 hrs by CLSI broth microdilution method; format: functional; settings: ATCC 13048, 18 h
[24] = Cytotoxicity against HEK293T cells assessed as reduction in cell viability after 48 hrs by MTS assay; format: cell-based, HEK-293T; settings: human
Enterococcus faecalis [25] = experiment: Antibacterial activity against vancomycin-resistant Enterococcus faecalis ATCC 51299 after 18 hrs by CLSI broth microdilution method; format: functional; settings: ATCC 51299, 18 h
Enterococcus faecalis [26] = experiment: Antibacterial activity against vancomycin-resistant Enterococcus faecalis 09-9 after 18 hrs by CLSI broth microdilution method; format: functional; settings: 09-9, 18 h
Pseudomonas aeruginosa [27] = experiment: Antibacterial activity against Pseudomonas aeruginosa 12-16 after 18 hrs by CLSI broth microdilution method; format: functional; settings: 12-16, 18 h
Proteus mirabilis = experiment: Antibacterial activity against Proteus mirabilis 12-6 after 18 hrs by CLSI broth microdilution method; format: functional; settings: 12-6, 18 h
Serratia marcescens = experiment: Antibacterial activity against Serratia marcescens ATCC 21074 after 18 hrs by CLSI broth microdilution method; format: functional; settings: ATCC 21074, 18 h
Klebsiella pneumoniae [28] = experiment: Antibacterial activity against new delhi metallo-beta-lactamase-1 harboring Klebsiella pneumoniae ATCC BAA-2146 after 18 hrs by CLSI broth microdilution method; format: functional; settings: ATCC BAA-2146, 18 h
Citrobacter freundii = experiment: Antibacterial activity against Citrobacter freundii ATCC 43864 after 18 hrs by CLSI broth microdilution method; format: functional; settings: ATCC 43864, 18 h
Enterococcus faecium [29] = experiment: Antibacterial activity against vancomycin-resistant Enterococcus faecium ATCC 700221 after 18 hrs by CLSI broth microdilution method; format: functional; settings: ATCC 700221, 18 h
[30] = tested on: Staphylococcus epidermidis; experiment: Antibacterial activity against methicillin-sensitive Staphylococcus epidermidis ATCC 12228 after 18 hrs by CLSI broth microdilution method; format: functional; settings: ATCC 12228, 18 h
Providencia rettgeri = experiment: Antibacterial activity against Providencia rettgeri ATCC 31052 after 18 hrs by CLSI broth microdilution method; format: functional; settings: ATCC 31052, 18 h

SMILES | MIC (Staphylococcus aureus [1]) | MIC [2] | MIC (Klebsiella pneumoniae [3]) | MIC (Escherichia coli [4]) | MIC (Staphylococcus aureus [5]) | MIC (Escherichia coli [6]) | MIC (Staphylococcus aureus [7]) | MIC (Escherichia coli [8]) | MIC (Proteus vulgaris) | MIC (Klebsiella pneumoniae [9]) | MIC (Pseudomonas aeruginosa [10]) | MIC (Enterobacter cloacae) | MIC (Escherichia coli [11]) | MIC (Pseudomonas aeruginosa [12]) | MIC [13] | MIC (Enterococcus faecalis [14]) | MIC [15] | MIC [16] | MIC (Enterococcus faecium [17]) | MIC (Klebsiella pneumoniae [18]) | further results
CN(C)C(=N)c1ccc2cc(-c3cncc(-c4cc5ccc(C(=N)N(C)C)cc5[nH]4)c3)[nH]c2c1 | 0.5 µg/mL (≈ 1.11 µM) | 8 µg/mL (≈ 17.8 µM) | 4 µg/mL (≈ 8.9 µM) | 2 µg/mL (≈ 4.45 µM) | 0.5 µg/mL (≈ 1.11 µM) | 1 µg/mL (≈ 2.22 µM) | 0.5 µg/mL (≈ 1.11 µM) | 2 µg/mL (≈ 4.45 µM) | 4 µg/mL (≈ 8.9 µM) | 8 µg/mL (≈ 17.8 µM) | > 64 µg/mL | 4 µg/mL (≈ 8.9 µM) | 1 µg/mL (≈ 2.22 µM) | 16 µg/mL (≈ 35.6 µM) | 0.5 µg/mL (≈ 1.11 µM) | 2 µg/mL (≈ 4.45 µM) | 8 µg/mL (≈ 17.8 µM) | 0.25 µg/mL (≈ 0.556 µM) | 2 µg/mL (≈ 4.45 µM) | 8 µg/mL (≈ 17.8 µM) | MIC (Klebsiella pneumoniae [19]): 4 µg/mL (≈ 8.9 µM); MIC (Staphylococcus aureus [20]): 0.5 µg/mL (≈ 1.11 µM); MIC (Enterococcus faecalis [21]): 2 µg/mL (≈ 4.45 µM); MIC (Enterococcus faecium [22]): 1 µg/mL (≈ 2.22 µM); MIC (Staphylococcus aureus [23]): 0.5 µg/mL (≈ 1.11 µM); MIC (Klebsiella aerogenes): 4 µg/mL (≈ 8.9 µM); CC50 at 48 h [24]: 1.75 µg/mL (≈ 3.89 µM); MIC (Enterococcus faecalis [25]): 2 µg/mL (≈ 4.45 µM); MIC (Enterococcus faecalis [26]): 2 µg/mL (≈ 4.45 µM); MIC (Pseudomonas aeruginosa [27]): > 64 µg/mL; MIC (Proteus mirabilis): 8 µg/mL (≈ 17.8 µM); MIC (Serratia marcescens): 16 µg/mL (≈ 35.6 µM); MIC (Klebsiella pneumoniae [28]): 4 µg/mL (≈ 8.9 µM); MIC (Citrobacter freundii): 8 µg/mL (≈ 17.8 µM); MIC (Enterococcus faecium [29]): 2 µg/mL (≈ 4.45 µM); MIC [30]: 0.25 µg/mL (≈ 0.556 µM); MIC (Providencia rettgeri): 2 µg/mL (≈ 4.45 µM)
CCC(C)NC(=N)c1ccc2cc(-c3ccc(-c4cc5ccc(C(=N)NC(C)CC)cc5[nH]4)cc3)[nH]c2c1 (centres undefined) | 0.5 µg/mL (≈ 0.991 µM) | 4 µg/mL (≈ 7.93 µM) | 4 µg/mL (≈ 7.93 µM) | 4 µg/mL (≈ 7.93 µM) | 0.5 µg/mL (≈ 0.991 µM) | 4 µg/mL (≈ 7.93 µM) | 0.5 µg/mL (≈ 0.991 µM) | 4 µg/mL (≈ 7.93 µM) | 4 µg/mL (≈ 7.93 µM) | 4 µg/mL (≈ 7.93 µM) | 16 µg/mL (≈ 31.7 µM) | 4 µg/mL (≈ 7.93 µM) | 4 µg/mL (≈ 7.93 µM) | 4 µg/mL (≈ 7.93 µM) | 0.5 µg/mL (≈ 0.991 µM) | 1 µg/mL (≈ 1.98 µM) | 16 µg/mL (≈ 31.7 µM) | 1 µg/mL (≈ 1.98 µM) | 1 µg/mL (≈ 1.98 µM) | 8 µg/mL (≈ 15.9 µM) | MIC (Klebsiella pneumoniae [19]): 4 µg/mL (≈ 7.93 µM); MIC (Staphylococcus aureus [20]): 0.5 µg/mL (≈ 0.991 µM); MIC (Enterococcus faecalis [21]): 2 µg/mL (≈ 3.96 µM); MIC (Enterococcus faecium [22]): 2 µg/mL (≈ 3.96 µM); MIC (Staphylococcus aureus [23]): 0.5 µg/mL (≈ 0.991 µM); MIC (Klebsiella aerogenes): 4 µg/mL (≈ 7.93 µM); CC50 at 48 h [24]: 15.4 µg/mL (≈ 30.6 µM); MIC (Enterococcus faecalis [25]): 2 µg/mL (≈ 3.96 µM); MIC (Enterococcus faecalis [26]): 2 µg/mL (≈ 3.96 µM); MIC (Pseudomonas aeruginosa [27]): 16 µg/mL (≈ 31.7 µM); MIC (Proteus mirabilis): 16 µg/mL (≈ 31.7 µM); MIC (Serratia marcescens): 8 µg/mL (≈ 15.9 µM); MIC (Klebsiella pneumoniae [28]): 4 µg/mL (≈ 7.93 µM); MIC (Citrobacter freundii): 4 µg/mL (≈ 7.93 µM); MIC (Enterococcus faecium [29]): 2 µg/mL (≈ 3.96 µM); MIC [30]: 0.25 µg/mL (≈ 0.495 µM); MIC (Providencia rettgeri): 4 µg/mL (≈ 7.93 µM)
